{
  "source": "patent US6982082B1",
  "about": "“Gene therapy by cell specific targeting” (President and Fellows of Harvard College, priority 1996, dated 2006)",
  "key": {"FKBP12 F36V (FKBP^t−)": {"biological_target": "FKBP12 F36V (FKBP^t−) (Homo sapiens, UniProt P62942, F37V)", "sequence (P62942 whole entry F37V)": "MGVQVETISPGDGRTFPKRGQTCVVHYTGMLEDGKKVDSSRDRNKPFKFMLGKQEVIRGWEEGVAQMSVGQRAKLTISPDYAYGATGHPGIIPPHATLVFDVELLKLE", "assay": "Scatchard analysis of binding of radiolabeled protein to FKBP^t−"}, "FKBP": {"biological_target": "FKBP (Homo sapiens, UniProt P62942)", "sequence (P62942 whole entry)": "as the sequence (P62942 whole entry F37V) above, with V37F counted along it", "assay": "binding to FKBP, same assay", "details": "in words"}, "[1]": {"test_system": "signaling in cells without FKBP containing the compensatory mutation", "assay": "signaling in cells not transfected with compensatory FKBP", "type": "cell-based"}, "[2]": {"test_system": "NFAT signaling in Jurkat cells, NFAT-SEAP alone (endogenous cyclophilins)", "assay": "cellular NFAT-signaling assay, Jurkat cells transfected with NFAT-SEAP alone", "type": "cell-based", "procedure": "(§1) FIG. 1 is a graph showing the cellular assay for calcineurin-mediated NFAT-signalling.\n(§2) CypA and mutants were sub-cloned from pGEX based expression vectors into pBJ5, a eukaryotic expression vector containing an N-terminal FLAG epitope tag. The signaling assay was performed as previously described in Belshaw, P. J., Spencer, D. M., Crabtree, G. R. & Schreiber, S. L., Chemistry & Biology, 3:731–8 (1996). Briefly 10^7 Jurkat cells were electroporated with NFAT-SEAP reporter plasmid (1 μg) alone or in combination with a Cyp expression vector (5 μg). After 20 hours, cells were stimulated in 96 well plates with phorbol ester (PMA)(50 ng/mL) and ionomycin (1 μM), which mimics T cell activation and receptor signaling. […] Twenty-four hours later, cells were assayed for SEAP activity."}, "[3]": {"test_system": "NFAT signaling in cells expressing CypA (S99T, F113A) (CypAat)", "assay": "cellular NFAT-signaling assay, cells expressing CypAat", "type": "cell-based", "procedure": "as §2, with “activity. The data for each transfection are presented as percent SEAP activity relative to the signal for [CpSar11-CsA]=0.” for “activity.”\nPresumably this was due to formation of endogenous Cyp-MeIle11-CsA complexes that inhibited Cn."}, "CypA wild type": {"biological_target": "T1, CypA wild type (Homo sapiens, UniProt P62937)", "T1 construct": "made in house; host or cells: E. coli", "assay": "direct fluorescence binding assay, wild type CypA", "details": "in words", "procedure": "(§3) To determine CpSar11-CsA's binding characteristics, both the unmodified CypA and the modified CypA (S99T, F113G, C115M) (CypAgtm) was overexpressed in E. coli and purified according to standard techniques. The binding constants for CpSar11-CsA for each receptor was determined with a direct fluorescence binding assay according to the procedure described in Belshaw, P. J., Schoepher, J. G., Lui, K-Q., Morrison, K. L. & Schreiber, S. L., Angew Chem. Int. Ed. Engl. 34:2129–32 (1995).\n(§4) Kds were determined using a direct fluorescence binding assay as previously described in Belshaw et al., supra."}, "[4]": {"biological_target": "T2, CypA (S99T, F113G, C115M) (CypAgtm) (Homo sapiens, UniProt P62937, C115M/F113G/S99T)", "T2 construct": "made in house; host or cells: E. coli", "T2 sequence (P62937 whole entry S99T/F113G/C115M)": "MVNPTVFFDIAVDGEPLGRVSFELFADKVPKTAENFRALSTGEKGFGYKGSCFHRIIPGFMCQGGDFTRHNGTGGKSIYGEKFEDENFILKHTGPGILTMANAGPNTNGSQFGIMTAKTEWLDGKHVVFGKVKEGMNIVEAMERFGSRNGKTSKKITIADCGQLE", "assay": "direct fluorescence binding assay, modified CypA", "procedure": "as §3, §4"}, "[5]": {"test_system": "NFAT signaling in Jurkat cells, CypA wild type + NFAT-SEAP", "assay": "cellular NFAT-signaling assay (NFAT-SEAP reporter), Jurkat cells coexpressing wild type CypA", "type": "cell-based", "source_text": "as §1\n(§5) Since it is the composite surface of Cyp-CsA that binds to and thereby inhibits the phosphatase activity of Cn and as the modifications to both the receptor and ligand were expected to be buried in the complex, it was expected that these new receptor-ligand combinations would have the ability to inhibit calcineurin (Cn) and thus NFAT mediated gene activation. This hypothesis was confirmed by using a cellular assay in which NFAT-signaling was measured on a reporter gene, as described below.\nas §2, with “activity. The data for each transfection are presented as percent SEAP activity relative to the signal for [CpSar11-CsA]=0.” for “activity.”"}, "[6]": {"test_system": "NFAT signaling in Jurkat cells, CypAgtm + NFAT-SEAP", "assay": "cellular NFAT-signaling assay (NFAT-SEAP reporter), Jurkat cells expressing CypAgtm", "type": "cell-based", "source_text": "as §1, §5\nas §2, with “activity. The data for each transfection are presented as percent SEAP activity relative to the signal for [CpSar11-CsA]=0.” for “activity.”"}},
  "data": [
    {"compound": "9-S-methoxy-FK506", "values": [
      {"measurement": "Kd", "setting": "FKBP12 F36V (FKBP^t−); Scatchard analysis", "result": 5, "unit": "nM"},
      {"measurement": "binding to FKBP12F36V", "setting": "FKBP12 F36V (FKBP^t−); in words", "result": "does bind"},
      {"measurement": "binding to endogenous FKBP", "setting": "FKBP", "result": "does not bind"},
      {"measurement": "effect on signaling", "setting": "[1]", "result": "no effect on signaling"}
    ]},
    {"compound": "MeIle11-CsA", "values": [
      {"measurement": "inhibition of NFAT signaling", "setting": "[2]; cells transfected with the NFAT reporter gene alone (data not shown)", "result": "still inhibited NFAT signaling"},
      {"measurement": "inhibition of NFAT signaling", "setting": "[3]", "result": "potently inhibited NFAT signaling"}
    ]},
    {"compound": "C/C=C/C[C@@H](C)[C@@H](O)[C@H]1C(=O)N[C@@H](CC)C(=O)N(C)CC(=O)N(C)[C@@H](CC(C)C)C(=O)N[C@@H](C(C)C)C(=O)N(C)[C@@H](CC(C)C)C(=O)N[C@@H](C)C(=O)N[C@H](C)C(=O)N(C)[C@@H](CC(C)C)C(=O)N(C)[C@@H](CC(C)C)C(=O)N(C)[C@@H](C2CCCC2)C(=O)N1C", "note": "[CpSar11-CsA, alpha-cyclopentyl, sarcosine11-CsA]", "values": [
      {"measurement": "affinity for wild type CypA", "setting": "CypA wild type", "result": "little affinity"},
      {"measurement": "Kd", "setting": "[4]; CypAgtm, read-out: Binding Constant Kd", "result": 9, "unit": "nM"},
      {"measurement": "affinity for CypAgtm", "setting": "[4]; in words", "result": "high affinity"},
      {"measurement": "IC50", "setting": "[5]; CypA wild type + NFAT-SEAP, PMA and ionomycin stimulation, read-out: IC50 in Cellular NFAT-Signalling", "result": "> 400", "unit": "nM"},
      {"measurement": "effect on reporter gene expression", "setting": "[5]; concentrations up to 400 nM, cells coexpressing a wild type cyclophilin", "result": "little or no effect"},
      {"measurement": "IC50", "setting": "[6]; CypAgtm + NFAT-SEAP, PMA and ionomycin stimulation, read-out: IC50 in Cellular NFAT-Signalling", "result": 25, "unit": "nM"},
      {"measurement": "inhibition of NFAT signaling", "setting": "[6]; cells expressing CypAgtm", "result": "potently inhibited NFAT signaling"},
      {"measurement": "effect on reporter gene expression", "setting": "[2]; concentrations up to 400 nM, cells expressing endogenous cyclophilins alone", "result": "little or no effect"}
    ]}
  ]
}
